In patent EP0953345A1, “Use of at least a hydroxystilbene as an agent for decreasing micro-organism adhesion” (priority 1998, dated 1999):

Tested on: Staphylococcus epidermis
Assay: ex vivo bacteria/skin adhesion model on intact human skin explants (3H-thymidine-labelled bacteria, liquid scintillation counting)
Format: cell-based
Excerpt: L'activité du resvératrol sur l'adhésion de micro-organismes sur la peau ou sur les muqueuses humaines est testée sur un modèle d'adhésion bactéries/peau, tel que décrit ci-après.
Ce modèle d'adhésion bactéries/peau ex vivo est basé sur l'utilisation d'explants de peau humaine intacte montée en sandwich entre une plaque 96 puits sans fond et un support en Plexiglas. Les puits individualisés étanches permettent de tester dans un format standard l'effet du resvératrol sur l'adhésion de Staphylococcus epidermis (bactéries résidentes) à la surface de la peau. Les bactéries sont radio marquées en phase de croissance par incorporation de 3H-thymidine. Cette flore bactérienne est ensuite déposée dans chaque puits. Après une heure d'incubation à 20°C, les puits sont lavés trois fois avec du tampon phosphate salin (PBS) ce qui permet d'éliminer les bactéries libres. Le resvératrol est ensuite ajouté à 0,1 µM et 10 µM et incubé 1 heure à 20°C. A l'issue de cette incubation le contenu de chaque puits est récupéré et compté en scintillation liquide (bactéries désorbées). Les puits sont ensuite lavés avec une solution chaotropique qui permet d'éluer les bactéries adhérentes. Les solutions de lavages sont également compté en scintillation liquide (bactéries adhérentes). Un témoin positif (Fucogel® Acide (poly-[(α-1,3)-Fuc-(α-1,3)-Gal-(α-1,3)-galacturonique]) est inclus à l'étude comme référence.

[1] = Staphylococcus, 1 h, read-out: Bactéries adhérentes
[2] = Staphylococcus, read-out: inhibition de l'adhésion des bactéries

Oc1ccc(C=Cc2cc(O)cc(O)c2)cc1 [resvératrol, 3,4',5-trihydroxystilbène] was tested, and the “dose dependence of the activity on adhesion of bacteria to human skin (in words)” value (0,1 µM and 10 µM) was “dose dépendante”, the activity at 0.1 µM [1] was 71% and the activity at 10 µM [1] was 64%. It also gave an inhibition at 1 µM [2] of 29% and an inhibition at 10 µM [2] of 36%.
